# Results reported in PMC9024338, “Bruceine H Mediates EGFR-TKI Drug Persistence in NSCLC by Notch3-Dependent β-Catenin Activating FOXO3a Signaling” (Frontiers in Oncology, 2022).
# Where “and” joins values, the source holds several entries; their conditions need not be identical. Equal values may be shown once. Read-outs that look alike come from different tables or passages of the source.
# Experiment: Preliminary pharmacokinetics in SD rats
# Assay type: in vivo
# Parameters: AUC (0-t), individual rats No1-No3 / AUC (0-∞), individual rats No1-No3: concentration or dose not given beside the values
# Procedure: We administered BH by gavage and intravenous administration to SD rats (male, 200–220 g, n = 6) after they had fasted for 12 h. For oral gavage, the BH was dissolved in DMSO/0.5% CMC-Na (5/95, v/v/), and for intravenous administration, it was dissolved in DMSO/0.9% NaCl (5/95, v/v/), and then the blood samples were collected at intervals to determine the pharmacokinetic (PK) profiles of SD rats.
compound,measurement,setting,value
"CC1=CC(=O)[C@@H](O)[C@]2(C)[C@H]3[C@@H](O)[C@H](O)[C@@]4(CO)OC[C@@]35[C@@H](C[C@@H]12)OC(=O)[C@H](O)[C@]54O [BH, Bruceine H]",concentration at 6 h,"male, SD, rat, plasma, po, 10 mg/kg, p.o. 10 mg/kg, 6 h, read-out: Concentration of BH in rat plasma, Mean",80.5 ng/mL
same,concentration at 6 h,"male, SD, rat, plasma, po, 10 mg/kg, p.o. 10 mg/kg, 6 h, read-out: Concentration of BH in rat plasma, individual rats No1-No3",97.6 ng/mL
same,concentration at 8 h,"male, SD, rat, plasma, po, 10 mg/kg, p.o. 10 mg/kg, 8 h, read-out: Concentration of BH in rat plasma, Mean",42.3 ng/mL
same,concentration at 8 h,"male, SD, rat, plasma, po, 10 mg/kg, p.o. 10 mg/kg, 8 h, read-out: Concentration of BH in rat plasma, individual rats No1-No3",50.4 ng/mL
same,concentration at 12 h,"male, SD, rat, plasma, po, 10 mg/kg, p.o. 10 mg/kg, 12 h, read-out: Concentration of BH in rat plasma, Mean",16.4 ng/mL
same,concentration at 24 h,"male, SD, rat, plasma, po, 10 mg/kg, p.o. 10 mg/kg, 24 h, read-out: Concentration of BH in rat plasma, Mean",3.33 ng/mL
same,AUC(0-t),"male, SD, rat, plasma, po, 10 mg/kg, rat, p.o., read-out: AUC (0-t), Mean",961 ng·h/mL
same,AUC(0-t),"male, SD, rat, plasma, po, 10 mg/kg, rat, p.o., read-out: AUC (0-t), individual rats No1-No3",1070 ng·h/mL
same,AUC(0-inf),"male, SD, rat, plasma, po, 10 mg/kg, rat, p.o., read-out: AUC (0-∞), Mean",976 ng·h/mL
same,concentration at 24 h,"male, SD, rat, plasma, po, 10 mg/kg, rat, p.o., read-out: C_last, Mean",2 ng/mL
same,Cmax,"male, SD, rat, plasma, po, 10 mg/kg, rat, p.o., read-out: Cmax, Mean",147 ng/mL
same,Cmax,"male, SD, rat, plasma, po, 10 mg/kg, rat, p.o., read-out: Cmax, individual rats No2, No3",145 ng/mL
same,MRT inf,"male, SD, rat, plasma, po, 10 mg/kg, rat, p.o., read-out: MRT (0-∞), Mean",5.92 h
same,MRT inf,"male, SD, rat, plasma, po, 10 mg/kg, rat, p.o., read-out: MRT (0-∞), individual rats No1-No3",5.5 h
same,half-life,"male, SD, rat, plasma, po, 10 mg/kg, rat, p.o., read-out: t1/2z, Mean (converted)",3.35 h
same,k el,"male, SD, rat, plasma, po, 10 mg/kg, rat, p.o., read-out: λz, Mean (converted)",6.89e-05 s⁻¹
same,AUC(0-inf),"male, Sprague-Dawley (SD), rat, plasma, iv, 2 mg/kg, rat, i.v., read-out: AUC (0-∞), Mean",1050 ng·h/mL
same,MRT last,"male, Sprague-Dawley (SD), rat, plasma, iv, 2 mg/kg, rat, i.v., read-out: MRT (0-t), Mean",5.01 h
same,MRT last,"male, Sprague-Dawley (SD), rat, plasma, iv, 2 mg/kg, rat, i.v., read-out: MRT (0-t), individual rats No1-No3",4.99 h
same,AUC(0-inf),"male, Sprague-Dawley (SD), rat, plasma, po, 10 mg/kg, rat, p.o., read-out: AUC (0-∞), individual rats No1-No3",1070 ng·h/mL
same,MRT last,"male, Sprague-Dawley (SD), rat, plasma, po, 10 mg/kg, rat, p.o., read-out: MRT (0-t), Mean",5.54 h
same,MRT last,"male, Sprague-Dawley (SD), rat, plasma, po, 10 mg/kg, rat, p.o., read-out: MRT (0-t), individual rats No1-No3",5.47 h
same,bioavailability,"male, rat, plasma, SD rats, 10 mg/kg po vs 2 mg/kg iv, read-out: Oral bioavailability (F)",20.4%
same,Tmax,"male, rat, plasma, SD rats, 10 mg/kg po, read-out: Time of maximum concentration (T max)",1 h
same,"Concentration of BH in rat plasma, individual rats No1-No3","p.o. 10 mg/kg, 0.25 h, 10 mg/kg",10.5 ng/mL and 11.3 ng/mL
same,"Concentration of BH in rat plasma, individual rats No1-No3","p.o. 10 mg/kg, 0.5 h, 10 mg/kg",55.4 ng/mL and 50.6 ng/mL
same,"Concentration of BH in rat plasma, individual rats No1-No3","p.o. 10 mg/kg, 0.75 h, 10 mg/kg",98.5 ng/mL and 104.2 ng/mL
same,"Concentration of BH in rat plasma, individual rats No1-No3","p.o. 10 mg/kg, 1 h, 10 mg/kg",145.3 ng/mL and 140.1 ng/mL
same,"Concentration of BH in rat plasma, individual rats No1-No3","p.o. 10 mg/kg, 2 h, 10 mg/kg",117.7 ng/mL and 120.4 ng/mL
same,"Concentration of BH in rat plasma, individual rats No1-No3","p.o. 10 mg/kg, 4 h, 10 mg/kg",99.4 ng/mL and 89.6 ng/mL
same,"Concentration of BH in rat plasma, individual rats No1-No3","p.o. 10 mg/kg, 6 h, 10 mg/kg",75.3 ng/mL and 68.5 ng/mL
same,"Concentration of BH in rat plasma, individual rats No1-No3","p.o. 10 mg/kg, 8 h, 10 mg/kg",35.4 ng/mL and 41.2 ng/mL
same,"Concentration of BH in rat plasma, individual rats No1-No3","p.o. 10 mg/kg, 12 h, 10 mg/kg",16.8 ng/mL and 10.4 ng/mL and 22.1 ng/mL
same,"Concentration of BH in rat plasma, individual rats No1-No3","p.o. 10 mg/kg, 24 h, 10 mg/kg",2.8 ng/mL and 1.8 ng/mL and 5.4 ng/mL
same,"AUC (0-t), individual rats No1-No3","rat, i.v.",883.761 ng·h/mL and 981.633 ng·h/mL
same,"AUC (0-∞), individual rats No1-No3","rat, i.v.",977.839 ng·h/mL and 1158.837 ng·h/mL
same,"AUMC (0-t), Mean","rat, i.v.",4747.166 h*h*ng/mL
same,"AUMC (0-t), individual rats No1-No3","rat, i.v.",4816.632 h*h*ng/mL and 3928.001 h*h*ng/mL and 5496.865 h*h*ng/mL
same,"AUMC (0-∞), Mean","rat, i.v.",9005.111 h*h*ng/mL
same,"AUMC (0-∞), individual rats No1-No3","rat, i.v.",6587.862 h*h*ng/mL and 7623.703 h*h*ng/mL and 12803.767 h*h*ng/mL
same,"C0, Mean","rat, i.v.",516.231 ng/mL
same,"C0, individual rats No1-No3","rat, i.v.",543.621 ng/mL and 515.672 ng/mL and 489.401 ng/mL
same,"CLz, individual rats No1-No3","rat, i.v.",34.08878 mL/min/kg and 28.76447 mL/min/kg
same,"C_last, individual rats No1-No3","rat, i.v.",6.155 ng/mL and 10.282 ng/mL
same,"MRT (0-t), individual rats No1-No3","rat, i.v.",4.445 h and 5.6 h
same,"MRT (0-∞), individual rats No1-No3","rat, i.v.",7.796 h and 11.049 h
same,"R_AUC (t/∞), Mean","rat, i.v.",89.967%
same,"R_AUC (t/∞), individual rats No1-No3","rat, i.v.",94.8% and 90.4% and 84.7%
same,"VRT (0-t), Mean","rat, i.v.",33.805 h^2
same,"VRT (0-t), individual rats No1-No3","rat, i.v.",30.325 h^2 and 31.091 h^2 and 40 h^2
same,"VRT (0-∞), Mean","rat, i.v.",157.741 h^2
same,"VRT (0-∞), individual rats No1-No3","rat, i.v.",73.322 h^2 and 156.114 h^2 and 243.787 h^2
same,"Vz, individual rats No1-No3","rat, i.v.",31.260167 L/kg and 29.744277 L/kg
same,"t1/2z, individual rats No1-No3","rat, i.v.",10.592 h and 11.943 h
same,"λz, individual rats No1-No3","rat, i.v.",0.065 h⁻¹ and 0.058 h⁻¹
same,"AUC (0-t), individual rats No1-No3","rat, p.o.",858.063 ng·h/mL and 958.688 ng·h/mL
same,"AUC (0-∞), individual rats No1-No3","rat, p.o.",858.682 ng·h/mL and 1001.201 ng·h/mL
same,"AUMC (0-t), Mean","rat, p.o.",5336.656 h*h*ng/mL
same,"AUMC (0-t), individual rats No1-No3","rat, p.o.",5831.875 h*h*ng/mL and 4275.963 h*h*ng/mL and 5902.131 h*h*ng/mL
same,"AUMC (0-∞), Mean","rat, p.o.",5811.834 h*h*ng/mL
same,"AUMC (0-∞), individual rats No1-No3","rat, p.o.",5879.636 h*h*ng/mL and 4292.741 h*h*ng/mL and 7263.126 h*h*ng/mL
same,"CLz, individual rat No1","rat, p.o.",155.9614 mL/min/kg
same,"C_last, individual rats No1-No3","rat, p.o.",0.506 ng/mL and 0.202 ng/mL and 5.305 ng/mL
same,"Cmax, individual rats No2, No3","rat, p.o.",140.1 ng/mL
same,"MRT (0-t), individual rats No1-No3","rat, p.o.",4.983 h and 6.156 h
same,"MRT (0-∞), individual rats No1-No3","rat, p.o.",4.999 h and 7.254 h
same,"R_AUC (t/∞), Mean","rat, p.o.",98.5%
same,"R_AUC (t/∞), individual rats No1-No3","rat, p.o.",99.8% and 99.9% and 95.8%
same,"VRT (0-t), Mean","rat, p.o.",19.306 h^2
same,"VRT (0-t), individual rats No1-No3","rat, p.o.",17.271 h^2 and 15.275 h^2 and 25.371 h^2
same,"VRT (0-∞), Mean","rat, p.o.",29.291 h^2
same,"VRT (0-∞), individual rats No1-No3","rat, p.o.",18.047 h^2 and 15.623 h^2 and 54.204 h^2
same,"Vz, individual rat No1","rat, p.o.",32.202018 L/kg
same,"t1/2z, individual rats No1-No3","rat, p.o.",2.385 h and 2.122 h and 5.553 h
same,"λz, individual rats No1-No3","rat, p.o.",0.291 h⁻¹ and 0.327 h⁻¹ and 0.125 h⁻¹
